The results in this text go back to US20110015226A1, “Treatment of Energy Utilization Disease” (SUMMIT CORPORATION PLC, priority 2008, published 2011).

Holding throughout (type): biochemical
The target in assay [1] is rabbit intestinal maltase. Briefly: Rabbit disaccharidase inhibition assay: maltase. The settings on record: NI: no inhibition at 0.8 mM. On the procedure: (§1) Sucrose (8.3 mM), maltose (5 mM) and isomaltose (6.3 mM) substrates were made using 0.2 M Macllvaine (citrate-phosphate) buffer, pH 6.0. The glucose detection reagent was prepared according to the supplier's instructions (Megazyme Ltd). Linearity of the timecourse of the reaction between the glucose detection reagent and glucose was tested using a series of glucose dilutions.
(§2) The method for preparation of mammalian small intestine mucosal disaccharidases was based on Griffiths (1998), omitting ammonium sulphate fractionation steps. The small intestine was dissected out of a female wild rabbit, and opened longitudinally using a scalpel. The mucosal layer was scraped off using the edge of a clean microscope slide, and placed into 3 ml of dH2O. The mucosal layer suspension was centrifuged at around 1000 rpm for 30 seconds to sediment tissue debris. The supernatant ([…]) was removed, and centrifuged again at 3500 rcf for 1 minute to remove fine particulates from suspension. The supernatant was diluted to give 0.2-0.25 mg/ml protein and stored at −30° C.
(§3) Enzyme assays were carried out using 5-15 μl of enzyme preparation, 5 μl of test compound (or dH2O for controls) and 15-25 μl of substrate solution. Reactions were covered using a sheet of plate sealing film, and incubated at 37° C. for 60 minutes. Glucose (from disaccharide hydrolysis) was quantified by adding 200 μl of glucose detection reagent and incubating the reactions for a further twenty-five minutes. Absorbance was measured at 510 nm against control blanks.

For assay [2], the target named is T1, β-Glucuronidase Bovine liver (Bos taurus, UniProt A3KMY8).
T1 construct: The assay involved the use of Bovine liver β-glucuronidase; purchased Sigma; host or cells: bovine liver
T1 sequence (A3KMY8 1-652): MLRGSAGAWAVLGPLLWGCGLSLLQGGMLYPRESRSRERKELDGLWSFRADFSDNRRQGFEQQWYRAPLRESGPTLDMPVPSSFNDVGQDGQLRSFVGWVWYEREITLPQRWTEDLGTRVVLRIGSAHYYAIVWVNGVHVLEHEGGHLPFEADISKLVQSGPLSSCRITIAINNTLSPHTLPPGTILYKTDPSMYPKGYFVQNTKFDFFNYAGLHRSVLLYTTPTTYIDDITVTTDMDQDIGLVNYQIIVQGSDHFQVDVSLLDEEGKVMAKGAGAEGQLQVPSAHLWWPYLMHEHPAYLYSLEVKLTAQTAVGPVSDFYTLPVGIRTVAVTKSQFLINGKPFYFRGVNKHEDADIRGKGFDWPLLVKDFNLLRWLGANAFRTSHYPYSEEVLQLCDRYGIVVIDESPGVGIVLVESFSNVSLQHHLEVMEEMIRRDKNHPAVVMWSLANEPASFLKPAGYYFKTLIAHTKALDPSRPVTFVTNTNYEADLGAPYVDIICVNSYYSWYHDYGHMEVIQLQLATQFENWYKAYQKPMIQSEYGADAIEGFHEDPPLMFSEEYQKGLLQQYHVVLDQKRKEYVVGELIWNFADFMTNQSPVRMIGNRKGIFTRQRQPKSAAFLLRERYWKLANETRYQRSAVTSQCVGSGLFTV
Description: Glycosidase inhibition: β-Glucuronidase Bovine liver.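 On all read-outs here: bovine liver β-glucuronidase acting on p-nitrophenyl β-D-glucuronide substrate in citric acid/disodium hydrogen phosphate buffer, pH 5.0, 27 °C, mean of triplicate runs.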 The following applies: for inhibition at 800 µM: compounds tested at 0.8 mM.

In assay [3] the test system is β-D-galactosidase Bovine liver. Briefly: Glycosidase inhibition: β-D-galactosidase Bovine liver. The settings on record: compounds tested at 0.8 mM. From the text:
The results tabulated below were obtained using commercially available glycosidases and p-nitrophenyl-substrates using standard methods described for example by Watson et al (1997) Phytochemistry 46 255-259. All enzymes and substrates were bought from Sigma. Enzyme and substrate solutions were made using sodium phosphate buffers at the pH optima values. The enzymes used were α-D-glucosidase Saccharomyces cerevisiae, Bacillus stearothermophilus, Oryzae sativa), β-D-glucosidase (Almond), α-D-mannosidase (Jack bean), α-D-galactosidase (Green coffee beans), β-D-galactosidase (Bovine liver), α-L-fucosidase (Bovine kidney), N-acetyl-β-D-glucosaminidase (Bovine kidney, Jack bean, Aspergillus oryzae), Naringinase (Penicillium decumbens) and amyloglucosidase (Aspergillus niger). All enzymes were used with the appropriate p-nitrophenyl substrates (5 mM). Amyloglucosidase activity was measured using amylopectin (0.1%) (Merck) mixed with sodium phosphate buffer, pH 4.5 in a glass bottle, and healed in a boiling water bath for 20 minutes to dissolve with released glucose measured using ‘Trinder’ glucose detection solution (Sigma).
All enzymes and para-nitrophenyl substrates were purchased from Sigma, with the exception of beta-mannosidase which came from Megazyme. Enzymes were assayed at 27° C. in 0.1M citric acid/0.2M disodium hydrogen phosphate buffers at the optimum pH for the enzyme. The incubation mixture consisted of 10 μl enzyme solution, 10 μl of 1 mg/ml aqueous solution of extract and 50 μl of the appropriate 5 mM para-nitrophenyl substrate made up in buffer at the optimum pH for the enzyme. The reactions were stopped by addition of 70 μl 0.4M glycine (pH 10.4) during the exponential phase of the reaction, which had been determined at the beginning using uninhibited assays in which water replaced inhibitor. Final absorbances were read at 405 nm using a Versamax microplate reader (Molecular Devices). Assays were carried out in triplicate, and the values given are means of the three replicates per assay. (See Watson, A. A., Nash, R. J., Wormald, M. R., Harvey, D. J., Dealler, S., Lees, E., Asano, N., Kizu, H., Kato, A., Griffiths, R. C., Cairns, A. J. and Fleet, G. W. J. (1997). Glycosidase-inhibiting pyrrolidine alkaloids from Hyacinthoides non-scripta. Phytochemistry 46 (2): 255-259.)

Assay [4] deals with rabbit digestive disaccharidases. Description: Rabbit digestive disaccharidases (summary statement). The settings on record: at 0.8 mM. As for the experimental part:
as §1, §2, §3

[5] abbreviates: read-out: IC50 against mammalian glucuronidase.
The mark [6] stands for this setting: pH 5.0, 27° C., p-nitrophenyl β-D-glucuronide, read-out: IC50, β-Glucuronidase Bovine liver.

Usually IC50 stands for the concentration that inhibits the measured activity by half. What is called inhibition is the percentage by which the read-out fell short of the control. Low values mean little suppression, high ones strong suppression.

Like-named read-outs stand apart in the source and are kept apart here.

On to `O=C(O)[C@H]1NC[C@H](O)[C@@H](O)[C@@H]1O` [Compound G2, 2S,3R,4R,5S-trihydroxypiperidine-2-carboxylic acid], for which the IC50 in assay [1] is greater than 800 µM; in assay [2] (setting [5]) it was 107 µM. For the same compound, in assay [2], at 800 µM the inhibition was 90%. In assay [3], the “% inhibition, β-D-galactosidase Bovine liver” value (“% inhibition” below) was “NI (NI = no inhibition)”. The “inhibition of the disaccharidases” value in assay [4] is “no inhibition”.
Turning to `O=C(O)CN1[C@H](CO)[C@@H](O)[C@H](O)[C@H]1CO` [Compound S2, 2-((2R,3R,4R,5R)-3,4-Dihydroxy-2,5-bis(hydroxymethyl)pyrrolidin-1-yl)acetic acid], the figures for the IC50 in assay [1] and in assay [2] (setting [6]) were greater than 800 µM and 507 µM, respectively. In addition, the “% inhibition” value in assay [3] amounted to 60%. Moreover, the “inhibition of the disaccharidases” value in assay [4] was “no inhibition”.
As to `O=C(O)CCN1C[C@H](O)[C@@H](O)[C@H](O)[C@H]1CO` [Compound T1], in assay [1], the IC50 came out at 19 µM and the “maltase IC50 (uM)” value is given as “very weak inhibition”. For the same compound, the IC50 in assay [2] (setting [5]) came to 50 µM.
Consider `CCCCOC(=O)[C@@H]1[C@@H](O)[C@H](O)[C@@H](O)CN1CCCC` [Compound T2, (2S,3R,4R,5S)-Butyl 1-butyl-3,4,5-trihydroxypiperidine-2-carboxylate], for which the IC50 in assay [1] was greater than 800 µM; in assay [2] (setting [6]) it was 280 µM. Besides, the “inhibition of the disaccharidases” value in assay [4] is reported as “no inhibition”.
In turn, `OC[C@H]1NC[C@H](O)[C@@H](O)[C@@H]1O` [DNJ, 1-deoxynojirimycin, reference compound] registered a 50% inhibitory concentration (IC50) in assay [1] of 0.18 µM. The compound further had an inhibition at 800 µM in assay [2] of less than 10%. Moreover, in assay [3], the “% inhibition” value is listed as “NI (NI = no inhibition)”.
